Data from patent EP4786487A1, “PEPTIDE” (Peptidream Inc, priority 2023, dated 2025).
Like-named read-outs stand apart in the source and are kept apart here. Starred links: 1 amine or outer side, 2 acyl side, 3 side chain; linkers in the order of their positions; H or OH if unused. Positions of bridges follow the written chain, without caps; N, C: chain ends. Non-standard residues stand in square brackets, D forms with d. Residues, ends and D or L forms follow the SMILES beside them. *: point of attachment. X16 = O=C([C@H](Cc1c[nH]c2c(-c3cccc(Cl)c3)cccc12)N[*:1])[*:2]; X6 = CS(=O)(=O)c1ccc(-c2ccc(C[C@H](N[*:1])C(=O)[*:2])cc2)cc1; X8 = COc1ccc(-n2cc(C[C@H](N[*:1])C(=O)[*:2])c3ccccc32)cc1; X3 = O=C(O)COc1ccccc1-c1ccc(C[C@H](N[*:1])C(=O)[*:2])cc1; Phe(3-OCH2COOH) = N[C@@H](Cc1cccc(OCC(=O)O)c1)C(=O)O; Piperidine(4-CH2CH2CONH2) = NC(=O)CCC1CCN(*)CC1; Trp(6-OH) = N[C@@H](Cc1c[nH]c2cc(O)ccc12)C(=O)O; Phe(4-COOH) = N[C@@H](Cc1ccc(C(=O)O)cc1)C(=O)O; Piperidinyl(4-CH2COOH) = O=C(O)CC1CCN(*)CC1; Gly(decyl) = CCCCCCCCCC[C@H](N)C(=O)O; Gly(N(CH2)3COOH) = O=C(O)CCCNCC(=O)O; X1 = CCCCCCC[C@H](N[*:1])C(=O)[*:2]; NMeF = CN[C@@H](Cc1ccccc1)C(=O)O; NMeE = CN[C@@H](CCC(=O)O)C(=O)O; NMeA = CN[C@@H](C)C(=O)O; X9 = NC(=O)CC1CCN(*)CC1

Assays:
Myostatin = target: T1, Myostatin (Homo sapiens, UniProt O14793); experiment: HepG2 reporter gene assay, Evaluation Procedure (2): 2-concentrations assay, myostatin inhibition; assay type: cell-based
T1 construct: active myostatin (also called mature myostatin) is a homodimer consisting of two C-terminal growth factor domains; purchased R&D systems 788-G8/CF
T1 sequence (O14793 267-375): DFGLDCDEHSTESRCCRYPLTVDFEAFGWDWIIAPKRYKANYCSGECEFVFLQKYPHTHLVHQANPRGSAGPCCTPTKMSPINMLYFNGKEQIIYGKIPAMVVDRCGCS
Outline: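 HepG2 cells (HB-8065, ATCC) carrying the transfected pGL3(CAGA)12-luc reporter plasmid were treated with myostatin (788-G8/CF, R&D systems) at a final concentration of 10 ng/mL plus peptide and incubated at 37°C, 5% CO2 for 20 to 24 hours. Luminescence was read after adding PBS mixed 1:1 with One-Glo substrate, and inhibition rate was calculated.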

GDF-11 = target: T2, GDF-11 (Homo sapiens, UniProt O95390); experiment: HepG2 reporter gene assay, Evaluation Procedure (2): 2-concentrations assay, GDF-11 inhibition; assay type: cell-based
T2 construct: purchased R&D systems 1958-GD-G8/CF
T2 sequence (O95390 299-407): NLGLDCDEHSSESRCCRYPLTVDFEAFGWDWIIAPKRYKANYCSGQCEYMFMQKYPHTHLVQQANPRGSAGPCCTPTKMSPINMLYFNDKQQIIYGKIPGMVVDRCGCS
Outline: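 HepG2 cells carrying the transfected pGL3(CAGA)12-luc reporter, a pGL3 vector with luciferase placed downstream of 12 CAGA repeats, were stimulated with GDF-11 at a final 10 ng/mL together with test peptide. Blank wells received no GDF-11 and no peptide. Plates were incubated 20 to 24 hours at 37°C with 5% CO2. Luminescence from One-Glo substrate was read to calculate percent inhibition.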

[1] = HepG2, read-out: inhibition rate (myostatin inhibition assay)
[2] = HepG2, read-out: inhibition rate (GDF-11 inhibition assay), Table 7-3/7-4, GDF-11 10 ng/mL, peptide at the higher of the 2 concentrations
[3] = HepG2, read-out: inhibition rate (GDF-11 inhibition assay), Table 7-3/7-4, GDF-11 10 ng/mL, peptide at the lower of the 2 concentrations
[4] = Table 7-3/7-4, myostatin 10 ng/mL, peptide at the higher of the 2 concentrations, HepG2, read-out: inhibition rate (myostatin inhibition assay)
[5] = Table 7-3/7-4, myostatin 10 ng/mL, peptide at the lower of the 2 concentrations, HepG2, read-out: inhibition rate (myostatin inhibition assay)
[6] = HepG2, first GDF-11 column of Table 7-3/7-4, GDF-11 10 ng/mL, peptide at the lower of the 2 concentrations, read-out: inhibition rate (GDF-11 inhibition assay)
[7] = HepG2, second GDF-11 column of Table 7-3/7-4, GDF-11 10 ng/mL, peptide at the higher of the 2 concentrations, read-out: inhibition rate (GDF-11 inhibition assay)

SMILES | inhibition at 0.03 µM (Myostatin; [1]) | inhibition at 0.1 µM (Myostatin; [1]) | inhibition (GDF-11; [2]) | inhibition (GDF-11; [3]) | inhibition at 0.1 µM (Myostatin; [4]) | inhibition at 0.03 µM (Myostatin; [5]) | inhibition (GDF-11; [6]) | inhibition (GDF-11; [7])
CCCCCCCCCC[C@@H]1NC(=O)[C@H](Cc2ccccc2)N(C)C(=O)[C@H](CCCNC(=N)N)NC(=O)[C@H](Cc2ccc(C(=O)O)cc2)NC(=O)[C@H](Cc2cccc(OCC(=O)O)c2)NC(=O)[C@H]2CCCN2C(=O)[C@H]([C@@H](C)CC)NC(=O)[C@H](Cc2ccccc2)N(C)C(=O)[C@H](Cc2ccc(O)cc2)NC(=O)[C@H](Cc2ccc(-c3ccc(S(C)(=O)=O)cc3)cc2)NC(=O)[C@H](C)NC(=O)[C@H](C)NC(=O)CSC[C@H](C(=O)N2CCC(CC(=O)O)CC2)NC(=O)[C@H](Cc2ccccc2)N(C)C(=O)[C@H](CCC(=O)O)N(C)C1=O [Myostatin_99_v342] ({CH2CO}-AA[X6]Y[NMeF]I[dP][Phe(3-OCH2COOH)][Phe(4-COOH)]R[NMeF][Gly(decyl)][NMeE][NMeF][dC]-{Piperidinyl(4-CH2COOH)}; thioether N-15) | 100% | 100% | 47% | 0% |  |  |  | 
CCCCCCCCCC[C@@H]1NC(=O)[C@H](Cc2ccccc2)N(C)C(=O)[C@H](CCCNC(=N)N)NC(=O)[C@H](Cc2ccc(C(=O)O)cc2)NC(=O)[C@H](Cc2cccc(OCC(=O)O)c2)NC(=O)[C@H]2CCCN2C(=O)[C@H]([C@@H](C)CC)NC(=O)[C@H](Cc2ccccc2)N(C)C(=O)[C@H](Cc2ccc(O)cc2)NC(=O)[C@H](Cc2ccc(-c3ccc(S(C)(=O)=O)cc3)cc2)NC(=O)[C@H](C)NC(=O)[C@H](C)NC(=O)CSC[C@H](C(=O)N2CCC(CCC(N)=O)CC2)NC(=O)[C@H](Cc2ccccc2)N(C)C(=O)[C@H](CCC(=O)O)N(C)C1=O [Myostatin_99_v345] ({CH2CO}-AA[X6]Y[NMeF]I[dP][Phe(3-OCH2COOH)][Phe(4-COOH)]R[NMeF][Gly(decyl)][NMeE][NMeF][dC]-{Piperidine(4-CH2CH2CONH2)}; thioether N-15) | 100% | 100% | 70% | 7% |  |  |  | 
CCCCCCCCCC[C@@H]1NC(=O)[C@H](Cc2ccccc2)N(C)C(=O)[C@H](CCCNC(=N)N)NC(=O)[C@H](Cc2ccc(C(=O)O)cc2)NC(=O)[C@H](Cc2cccc(OCC(=O)O)c2)NC(=O)[C@H]2CCCN2C(=O)[C@H]([C@@H](C)CC)NC(=O)[C@H](Cc2ccccc2)N(C)C(=O)[C@H](Cc2ccc(O)cc2)NC(=O)[C@H](Cc2c[nH]c3ccccc23)NC(=O)[C@H](C)NC(=O)[C@H](C)NC(=O)CSC[C@H](C(=O)N2CCC(CC(N)=O)CC2)NC(=O)[C@H](Cc2ccccc2)N(C)C(=O)[C@H](CCC(=O)O)N(C)C1=O [Myostatin_99_v347] ({CH2CO}-AAWY[NMeF]I[dP][Phe(3-OCH2COOH)][Phe(4-COOH)]R[NMeF][Gly(decyl)][NMeE][NMeF][dC]-X9; thioether N-15) |  |  |  |  | 100% | 100% | 0% | 8%
CCCCCCC[C@@H]1NC(=O)[C@H](Cc2ccccc2)N(C)C(=O)[C@H](CCCNC(=N)N)NC(=O)[C@H](Cc2ccc(C(=O)O)cc2)NC(=O)[C@H](Cc2cccc(OCC(=O)O)c2)NC(=O)[C@H](C)N(C)C(=O)[C@H]([C@@H](C)CC)NC(=O)[C@H](Cc2ccccc2)N(C)C(=O)[C@H](Cc2ccc(O)cc2)NC(=O)[C@H](Cc2ccc(-c3ccc(S(C)(=O)=O)cc3)cc2)NC(=O)[C@H](C)NC(=O)CN(CCCC(=O)O)C(=O)CSC[C@H](C(=O)O)NC(=O)[C@H](Cc2ccccc2)N(C)C(=O)[C@H](C)N(C)C1=O [Myostatin_99_v370] ({CH2CO}-[Gly(N(CH2)3COOH)]A[X6]Y[NMeF]I[NMeA][Phe(3-OCH2COOH)][Phe(4-COOH)]R[NMeF][X1][NMeA][NMeF][dC]-OH; thioether N-15) | 100% | 100% | 0% | 0% |  |  |  | 
CCCCCCC[C@@H]1NC(=O)[C@H](Cc2ccccc2)N(C)C(=O)[C@H](CCCNC(=N)N)NC(=O)[C@H](Cc2ccc(C(=O)O)cc2)NC(=O)[C@H](Cc2ccc(-c3ccccc3OCC(=O)O)cc2)NC(=O)[C@H](C)N(C)C(=O)[C@H]([C@@H](C)CC)NC(=O)[C@H](Cc2ccccc2)N(C)C(=O)[C@H](Cc2ccc(O)cc2)NC(=O)[C@H](Cc2c[nH]c3ccccc23)NC(=O)[C@H](C)NC(=O)CN(CCCC(=O)O)C(=O)CSC[C@H](C(=O)O)NC(=O)[C@H](Cc2ccccc2)N(C)C(=O)[C@H](C)N(C)C1=O [Myostatin_99_v371] ({CH2CO}-[Gly(N(CH2)3COOH)]AWY[NMeF]I[NMeA][X3][Phe(4-COOH)]R[NMeF][X1][NMeA][NMeF][dC]-OH; thioether N-15) | 100% | 100% | 0% | 0% |  |  |  | 
CCCCCCC[C@@H]1NC(=O)[C@H](Cc2ccccc2)N(C)C(=O)[C@H](CCCNC(=N)N)NC(=O)[C@H](Cc2ccc(C(=O)O)cc2)NC(=O)[C@H](Cc2ccc(-c3ccccc3OCC(=O)O)cc2)NC(=O)[C@H](C)N(C)C(=O)[C@H]([C@@H](C)CC)NC(=O)[C@H](Cc2ccccc2)N(C)C(=O)[C@H](Cc2ccc(O)cc2)NC(=O)[C@H](Cc2c[nH]c3cc(O)ccc23)NC(=O)[C@H](C)NC(=O)CN(CCCC(=O)O)C(=O)CSC[C@H](C(=O)O)NC(=O)[C@H](Cc2ccccc2)N(C)C(=O)[C@H](C)N(C)C1=O [Myostatin_99_v373] ({CH2CO}-[Gly(N(CH2)3COOH)]A[Trp(6-OH)]Y[NMeF]I[NMeA][X3][Phe(4-COOH)]R[NMeF][X1][NMeA][NMeF][dC]-OH; thioether N-15) | 100% | 100% | 47% | 0% |  |  |  | 
CCCCCCC[C@@H]1NC(=O)[C@H](Cc2ccccc2)N(C)C(=O)[C@H](CCCNC(=N)N)NC(=O)[C@H](Cc2ccc(C(=O)O)cc2)NC(=O)[C@H](Cc2cccc(OCC(=O)O)c2)NC(=O)[C@H](C)N(C)C(=O)[C@H]([C@@H](C)CC)NC(=O)[C@H](Cc2ccccc2)N(C)C(=O)[C@H](Cc2ccc(O)cc2)NC(=O)[C@H](Cc2c[nH]c3c(-c4cccc(Cl)c4)cccc23)NC(=O)[C@H](C)NC(=O)CN(CCCC(=O)O)C(=O)CSC[C@H](C(=O)O)NC(=O)[C@H](Cc2ccccc2)N(C)C(=O)[C@H](C)N(C)C1=O [Myostatin_99_v378] ({CH2CO}-[Gly(N(CH2)3COOH)]A[X16]Y[NMeF]I[NMeA][Phe(3-OCH2COOH)][Phe(4-COOH)]R[NMeF][X1][NMeA][NMeF][dC]-OH; thioether N-15) |  |  |  |  | 100% | 99% | 0% | 0%
CCCCCCC[C@@H]1NC(=O)[C@H](Cc2ccccc2)N(C)C(=O)[C@H](CCCNC(=N)N)NC(=O)[C@H](Cc2ccc(C(=O)O)cc2)NC(=O)[C@H](Cc2cccc(OCC(=O)O)c2)NC(=O)[C@H](C)N(C)C(=O)[C@H]([C@@H](C)CC)NC(=O)[C@H](Cc2ccccc2)N(C)C(=O)[C@H](Cc2ccc(O)cc2)NC(=O)[C@H](Cc2cn(-c3ccc(OC)cc3)c3ccccc23)NC(=O)[C@H](C)NC(=O)CN(CCCC(=O)O)C(=O)CSC[C@H](C(=O)O)NC(=O)[C@H](Cc2ccccc2)N(C)C(=O)[C@H](C)N(C)C1=O [Myostatin_99_v379] ({CH2CO}-[Gly(N(CH2)3COOH)]A[X8]Y[NMeF]I[NMeA][Phe(3-OCH2COOH)][Phe(4-COOH)]R[NMeF][X1][NMeA][NMeF][dC]-OH; thioether N-15) |  |  |  |  | 100% | 100% | 0% | 0%
